Settings: 25 mg/kg intravenously, an hour following injection
Experimental: An hour following injection, the animals were sacrificed and plasma and the brain were collected and frozen immediately. Following tissue and plasma extractions, concentrations of the compounds in brain and plasma were measured using LC-MS/MS. The brain:plasma ratio was calculated as the ratio of measured concentrations in the brain and plasma.

## COCCOCCOCCO[C@H]1CC[C@@]2(O)[C@H]3Cc4ccc(O)c5c4[C@@]2(CCN3CC2CCC2)[C@H]1O5 [6-O-mPEG3-Nalbuphine]
  Brain:Plasma Ratios: 0.23
